Several values for one entry are separate records, joined by “and”; a condition that tells them apart may be missing. Equal values may be shown once.
Key:
Assay type in all cases: cell-based
[1] = molecular target: T1, control (Homo sapiens, UniProt P01116, G12C); assay: SIMPL2 assay, control of Fig. 3B-D; details: replicates 1-4
T1 construct: IC-β9 (GP41-1 split intein C fragment + tNLuc β9 peptide) (N); FLAG; expressed in transfected cells

[2] = molecular target: T2, MDM2/MDM4 interaction (Homo sapiens, UniProt O15151+Q00987); assay: SIMPL2 assay MDM2/MDM4; details: for SIMPL2 signal, MDM2/MDM4 (Fig. 4A): replicates 1-4
T2 construct: β10-IN (tNLuc β10 peptide + GP41-1 split intein N fragment) (C); V5; IC-β9 (GP41-1 split intein C fragment + tNLuc β9 peptide) (N); FLAG; expressed in transfected cells
T2 sequence (Q00987 whole entry, the tested form may be a part): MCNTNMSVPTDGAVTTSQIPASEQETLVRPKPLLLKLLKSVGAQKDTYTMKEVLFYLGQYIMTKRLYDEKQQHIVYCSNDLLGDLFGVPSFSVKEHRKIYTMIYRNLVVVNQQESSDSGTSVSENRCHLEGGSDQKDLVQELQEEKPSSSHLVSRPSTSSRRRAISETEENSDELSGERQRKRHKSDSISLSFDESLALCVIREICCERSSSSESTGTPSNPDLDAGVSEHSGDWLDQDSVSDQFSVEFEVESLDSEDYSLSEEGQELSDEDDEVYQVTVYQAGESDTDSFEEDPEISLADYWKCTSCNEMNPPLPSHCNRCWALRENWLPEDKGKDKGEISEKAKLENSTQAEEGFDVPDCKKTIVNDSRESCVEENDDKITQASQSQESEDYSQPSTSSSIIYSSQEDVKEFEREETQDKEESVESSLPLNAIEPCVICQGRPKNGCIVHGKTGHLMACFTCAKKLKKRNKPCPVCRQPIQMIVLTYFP
T2 sequence (O15151 whole entry, the tested form may be a part): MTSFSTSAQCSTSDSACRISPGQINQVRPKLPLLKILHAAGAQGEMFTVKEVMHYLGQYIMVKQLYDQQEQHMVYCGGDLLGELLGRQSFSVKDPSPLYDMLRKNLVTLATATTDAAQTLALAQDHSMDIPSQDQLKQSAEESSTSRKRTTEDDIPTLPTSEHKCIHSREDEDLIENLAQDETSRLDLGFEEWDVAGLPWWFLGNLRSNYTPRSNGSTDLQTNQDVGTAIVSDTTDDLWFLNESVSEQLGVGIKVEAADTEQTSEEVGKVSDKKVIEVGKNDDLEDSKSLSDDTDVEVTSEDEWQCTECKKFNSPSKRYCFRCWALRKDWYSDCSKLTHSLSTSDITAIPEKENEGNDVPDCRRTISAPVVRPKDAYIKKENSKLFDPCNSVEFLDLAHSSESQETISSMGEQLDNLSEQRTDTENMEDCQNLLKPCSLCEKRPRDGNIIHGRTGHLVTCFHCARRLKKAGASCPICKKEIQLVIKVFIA
Method: We next tested the system with molecular glues, which are small molecule compounds that induce target protein interaction. […] To clarify, the two protein molecules are anchored together through a pair of dimerized RO-5963 molecules. […] Therefore, its binding kinetics display a monophasic change.
Figure 4 Evaluation of SIMPL2 as a drug discovery tool using molecular glue and PROTACs. […] Samples were measured and normalized as described in Materials and Methods. […] The cells were then subjected to SIMPL2 luciferase measurement, and the raw values are plotted.
Stable cells of target protein pair were created using Cas9 CRISPR. To characterize PPI modulators, the cells were seeded in 384 well plate (10,000 cells/well) and incubated for 5 h. […] Average signal of wells without either deoxycycline or compound treatment was used as blank or ‘floor’ signal (SF). The average signal of wells with deoxycycline treatment but without compound treatment was used as maximal interaction or ‘ceiling’ (SC). SIMPL2 reading of each sample (Ssample) was normalized according to the formula S^*sample = (Ssample– SF)/(SC– SF) x 100%, in which S^*sample stands for normalized signal. The normalized data of inhibitor experiments were fitted into a four-parameter inhibitor-response model.

[3] = molecular target: T3, EGFR(L858R)/SHC1 (Homo sapiens, UniProt P00533, L858R); assay: SIMPL2 assay EGFR(L858R)/SHC1; details: for SIMPL2 signal, L858R (Fig. 3D): replicates 1-4
T3 construct: β10-IN (tNLuc β10 peptide + GP41-1 split intein N fragment) (C); V5; expressed in transfected cells

[4] = molecular target: T4, EGFR(WT)/SHC1 (Homo sapiens, UniProt P00533); assay: SIMPL2 assay EGFR(WT)/SHC1; details: for SIMPL2 signal, WT (Fig. 3D): replicates 1-4
T4 construct: β10-IN (tNLuc β10 peptide + GP41-1 split intein N fragment) (C); V5; expressed in transfected cells

T1 sequence (P01116 1-185 isoform P01116-2 G12C limits assumed): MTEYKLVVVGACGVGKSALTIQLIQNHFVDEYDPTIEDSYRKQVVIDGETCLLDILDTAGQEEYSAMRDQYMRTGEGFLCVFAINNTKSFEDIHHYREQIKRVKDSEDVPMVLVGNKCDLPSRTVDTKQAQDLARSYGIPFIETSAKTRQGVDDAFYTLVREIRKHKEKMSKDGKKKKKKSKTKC

SIMPL2 signal, control (Fig. 3D) ([1]; AZD6244 6.4e-6 uM): 109.596 and 130.088 | SIMPL2 signal, control (Fig. 3D) ([1]; AZD6244 0.004 uM): 92.396 and 92.6013 and 98.3715 | SIMPL2 signal, control (Fig. 3D) ([1]; AZD6244 0.02 uM): 95.5614 | SIMPL2 signal, control (Fig. 3D) ([1]; AZD6244 0.1 uM): 91.3936 and 91.141 | SIMPL2 signal, control (Fig. 3D) ([1]; AZD6244 0.5 uM): 89.4044 | induction of MDM2/MDM4 interaction ([2]; 16 h with doxycycline): not observed | SIMPL2 signal, L858R (Fig. 3D) ([3]; AZD6244 0.004 uM): 85.9825 and 79.039 and 94.0877 and 83.58 | effect on EGFR(L858R)/SHC1 interaction signal ([3]; doxycycline + compound 16 h): no effect | inhibition of EGFR(WT)/SHC1 interaction signal ([4]; doxycycline + compound 16 h): no effect
SMILES: Cn1cnc2c(F)c(Nc3ccc(Br)cc3Cl)c(C(=O)NOCCO)cc21 [selumetinib, Selumetinib]
SIMPL2 signal, control (Fig. 3D) ([1]; AZD6244 3.2e-5 uM): 98.632 and 104.891 and 97.5584 and 100.637 | SIMPL2 signal, control (Fig. 3D) ([1]; AZD6244 0.00016 uM): 97.4795 and 101.781 and 98.0162 and 96.0508 | SIMPL2 signal, control (Fig. 3D) ([1]; AZD6244 0.0008 uM): 100.171 and 103.684 and 97.3453 and 101.418 | SIMPL2 signal, MDM2/MDM4 (Fig. 4A) ([2]; AZD6244 0.013717 uM): 105.342 and 94.3499 and 91.2095 and 111.623 | SIMPL2 signal, MDM2/MDM4 (Fig. 4A) ([2]; AZD6244 0.041152 uM): 84.4799 and 83.2835 and 83.9564 and 94.7238 | SIMPL2 signal, MDM2/MDM4 (Fig. 4A) ([2]; AZD6244 0.37037 uM): 85.1528 and 73.4882 and 95.2472 and 81.3394 | SIMPL2 signal, MDM2/MDM4 (Fig. 4A) ([2]; AZD6244 1.11111 uM): 73.7125 and 92.2563 and 82.1619 and 85.5267 | SIMPL2 signal, MDM2/MDM4 (Fig. 4A) ([2]; AZD6244 3.33333 uM): 70.0486 and 88.8915 and 67.3568 and 90.3869 | SIMPL2 signal, MDM2/MDM4 (Fig. 4A) ([2]; AZD6244 10 uM): 78.4232 and 90.5365 and 82.0123 and 90.6113 | SIMPL2 signal, L858R (Fig. 3D) ([3]; AZD6244 6.4e-6 uM): 107.975 and 92.9525 and 107.024 and 103.355 | SIMPL2 signal, L858R (Fig. 3D) ([3]; AZD6244 3.2e-5 uM): 88.2795 and 92.9261 and 92.1077 and 96.4375 | SIMPL2 signal, L858R (Fig. 3D) ([3]; AZD6244 0.00016 uM): 108.688 and 85.5073 and 82.6824 and 92.9525 | SIMPL2 signal, L858R (Fig. 3D) ([3]; AZD6244 0.0008 uM): 91.1572 and 94.7742 and 86.1145 and 84.24 | SIMPL2 signal, L858R (Fig. 3D) ([3]; AZD6244 0.02 uM): 89.8635 and 58.7628 and 116.819 and 92.2661 | SIMPL2 signal, L858R (Fig. 3D) ([3]; AZD6244 0.1 uM): 96.4375 and 99.3416 and 96.3319 and 106.18 | SIMPL2 signal, L858R (Fig. 3D) ([3]; AZD6244 0.5 uM): 85.5073 and 101.612 and 96.3583 and 99.632 | SIMPL2 signal, WT (Fig. 3D) ([4]; AZD6244 6.4e-6 uM): 117.981 and 128.314 and 91.3721 and 97.094 | SIMPL2 signal, WT (Fig. 3D) ([4]; AZD6244 3.2e-5 uM): 96.8718 and 91.2055 and 86.3725 and 98.1494 | SIMPL2 signal, WT (Fig. 3D) ([4]; AZD6244 0.00016 uM): 96.2607 and 97.2051 and 90.2055 and 118.204 | SIMPL2 signal, WT (Fig. 3D) ([4]; AZD6244 0.0008 uM): 91.2055 and 95.2608 and 88.9279 and 100.427 | SIMPL2 signal, WT (Fig. 3D) ([4]; AZD6244 0.004 uM): 91.5388 and 82.4283 and 71.7068 and 83.0949 | SIMPL2 signal, WT (Fig. 3D) ([4]; AZD6244 0.02 uM): 79.8174 and 81.2062 and 88.8723 and 103.205 | SIMPL2 signal, WT (Fig. 3D) ([4]; AZD6244 0.1 uM): 113.815 and 112.593 and 100.427 and 98.6494 | SIMPL2 signal, WT (Fig. 3D) ([4]; AZD6244 0.5 uM): 103.76 and 101.094 and 97.3717 and 91.7054

— article PMC11791039, “A split intein and split luciferase-coupled system for detecting protein-protein interactions” (Molecular Systems Biology, 2024)
